Experimental data taken from ChEMBL document CHEMBL1130622, “N-(2-(4-hydroxyphenyl)ethyl)-4-chlorocinnamide: a novel antagonist at the 1A/2B NMDA receptor subtype” (Bioorg Med Chem Lett, 1998).

Assays:
Format in all cases: functional, Rattus norvegicus
[1] = Antagonistic activity towards NMDA receptor 1A/2A subtype was determined
[2] = Antagonistic activity towards NMDA receptor 1A/2B subtype was determined
[3] = Antagonistic activity towards NMDA receptor 1A/2C subtype was determined

SMILES	IC50 [1] [µM]	IC50 [2] [µM]	IC50 [3] [µM]
O=C(/C=C/c1ccccc1)NCCc1ccc(O)cc1	> 300	0.68	> 300
N#C/C(=C\c1ccc(Cl)cc1)C(=O)NCCc1ccc(O)cc1	78	3.4	105
O=C(/C=C/c1ccc(Cl)cc1)NCCc1ccccc1	> 300	> 300	> 300
N#C/C(=C\C(=O)NCCc1ccc(O)cc1)c1ccc(Cl)cc1	> 300	9	> 300

The next lines start with the values.

IC50 [1] [µM]	IC50 [2] [µM]	IC50 [3] [µM]	SMILES
> 300	21	200	O=C(/C=C/c1ccc(O)cc1)NCCc1ccc(O)cc1 [N-P-COUMAROYL TYRAMINE]
> 300	7.4	175	O=C(/C=C/c1ccc(Cl)cc1)NCCc1cccc(O)c1
> 300	0.33	> 300	O=C(/C=C/c1ccc(O)cc1)NCCc1ccc(Cl)cc1
160	> 300	> 300	O=C(/C=C/c1ccc(Cl)cc1)NCCc1ccc(Cl)cc1
> 300	0.17	> 300	O=C(/C=C/c1ccc(Cl)cc1)NCCc1ccc(O)cc1
